Data taken from patent publication US7777000B2, “Anti-viral activity of cathelicidin peptides” (priority 2003, dated 2010).
Several values for one entry are separate records, joined by “and”; a condition that tells them apart may be missing. Equal values may be shown once. Entries after “also recorded” stand apart in the source; their conditions may differ. Where no end group is shown, it is not given here.

Columns and labels:
vaccinia virus [1] = format: cell-based, vaccinia virus (Wyeth strain)
vaccinia virus [2] = format: cell-based, vaccinia virus (Wyeth strain); remark: listed apart in the source
E. coli ML35p = experiment: Minimum bactericidal concentration / antimicrobial activity against E. coli ML35p; format: cell-based; conditions: for Minimum Bactericidal Concentration: mean of three independent experiments
vaccinia virions (IMV) = system: vaccinia virions (IMV); parameters: species or system vaccinia virus (Wyeth strain); conditions: for alteration of virion structure: 25 μM

## GLLRKGGEKIGEKLKKIGQKIKNFFQKLVPQPEQ (GLLRKGGEKIGEKLKKIGQKIKNFFQKLVPQPEQ) [CRAMP]
Vaccinia virus [1]
  amount of viral mRNA in the tissue culture cells: decreased in proportion to the concentration
Vaccinia virus [2]
  effective antiviral concentration relative to that required for killing of S. aureus: at least one log lower
  inhibition of vaccinia virus replication (plaque-forming units): concentration-dependent inhibition; also recorded: able to kill vaccinia virus
  lowest concentration with significant reduction in viral replication: 25 µM
E. coli ML35p
  antimicrobial activity against E. coli ML35p: within reported parameters

## HBD-1 (DHYNCVSSGGQCLYSACPIFTKIQGTCYRGKAKCCK; ends and bridges not checked; cysteine pairing not given here; UniProt P60022 33-68, looked up)
Vaccinia virus [2]
  inhibition of vaccinia virus replication (plaque-forming units): did not inhibit viral replication
  inhibition of vaccinia virus replication at concentrations as high as 50 μM: did not inhibit vaccinia virus replication
E. coli ML35p
  Minimum Bactericidal Concentration: 16.02 µM and 16.03 ± 1.20 µM

## GLNGPDIYKGUYQFKSVEFD [Peptide 8044]
Vaccinia virus [2]
  inhibition of vaccinia virus replication (plaque-forming units): did not inhibit virus replication; also recorded: no antiviral activity
Vaccinia virions (IMV)
  effect on the structure of the IMV (electron microscopy): did not have an effect on virion structure
  alteration of virion structure: *25 μM HNP-1 and control peptides did not alter virion structure
E. coli ML35p
  antimicrobial activity against E. coli ML35p: no antimicrobial activity; also recorded: did not exhibit antimicrobial activity; also recorded: ^aControl peptide 8044 did not possess antimicrobial activity against ML35p

## CC[C@H](C)[C@H](NC(=O)[C@H](CCCCN)NC(=O)[C@H](CCC(=O)O)NC(=O)[C@H](CCCCN)NC(=O)[C@H](CO)NC(=O)[C@H](CCCCN)NC(=O)[C@H](CCCNC(=N)N)NC(=O)[C@H](Cc1ccccc1)NC(=O)[C@H](Cc1ccccc1)NC(=O)[C@H](CC(=O)O)NC(=O)CNC(=O)[C@H](CC(C)C)NC(=O)[C@@H](N)CC(C)C)C(=O)NCC(=O)N[C@@H](CCCCN)C(=O)N[C@@H](CCC(=O)O)C(=O)N[C@@H](Cc1ccccc1)C(=O)N[C@@H](CCCCN)C(=O)N[C@@H](CCCNC(=N)N)C(=O)N[C@H](C(=O)N[C@H](C(=O)N[C@@H](CCC(N)=O)C(=O)N[C@@H](CCCNC(=N)N)C(=O)N[C@H](C(=O)N[C@@H](CCCCN)C(=O)N[C@@H](CC(=O)O)C(=O)N[C@@H](Cc1ccccc1)C(=O)N[C@@H](CC(C)C)C(=O)N[C@@H](CCCNC(=N)N)C(=O)N[C@@H](CC(N)=O)C(=O)N[C@@H](CC(C)C)C(=O)N[C@H](C(=O)N1CCC[C@H]1C(=O)N[C@@H](CCCNC(=N)N)C(=O)N[C@H](C(=O)N[C@@H](CCC(=O)O)C(=O)N[C@@H](CO)C(=O)O)[C@@H](C)O)C(C)C)[C@@H](C)CC)C(C)C)[C@@H](C)CC [LL-37, LLGDFFRKSK EKIGKEFKR1 VQRIKDFLRN LVPRTES]
Vaccinia virus [1]
  amount of viral mRNA in the tissue culture cells: decreased in proportion to the concentration
Vaccinia virus [2]
  contact time with vaccinia required to detect antiviral activity: At least one hour
  effective antiviral concentration relative to that required for killing of S. aureus: at least one log lower
  lowest concentration with significant reduction in viral replication: 25 µM
Vaccinia virions (IMV)
  Altered virions (%): 67% and 90% and 95%
  Altered virions/virion number: 19/28 and 27/30 and 39/41
E. coli ML35p
  antimicrobial activity against E. coli ML35p: within reported parameters

## HNP-1
Vaccinia virus [2]
  inhibition of vaccinia virus replication (plaque-forming units): did not inhibit virus replication; also recorded: did not inhibit viral replication
  inhibition of vaccinia virus replication at concentrations as high as 50 μM: did not inhibit vaccinia virus replication
Vaccinia virions (IMV)
  effect on the structure of the IMV (electron microscopy): did not have an effect on virion structure
  alteration of virion structure: *25 μM HNP-1 and control peptides did not alter virion structure
E. coli ML35p
  antimicrobial activity against E. coli ML35p: active against E. coli
E. coli ML35p; listed as HNP
  Minimum Bactericidal Concentration: 8.42 µM and 8.42 ± 0.43 µM
